Results as given in ChEMBL document CHEMBL1152184, “A micellar prodrug of paclitaxel conjugated to cyclotriphosphazene” (Bioorg Med Chem Lett, 2008).

Test system: A-431
Test: Cytotoxicity against human A431 cells after 72 hrs by SRB method
Assay type: functional, cell-based
Details: A-431, 72 h

CC(=O)O[C@H]1C(=O)[C@@]2(C)[C@H]([C@H](OC(=O)c3ccccc3)[C@]3(O)C[C@H](OC(=O)[C@H](O)[C@@H](NC(=O)c4ccccc4)c4ccccc4)C(C)=C1C3(C)C)[C@]1(OC(C)=O)CO[C@@H]1C[C@@H]2O [PACLITAXEL]
IC50: 25.1 nM
